Experimental data published in the NIST ThermoML archive (doi:10.1016/j.fluid.2010.02.020).
Values joined by “and” are separate entries in the source; they are usually repeats but may differ in a detail not shown here. Equal values may be shown once.

Settings: for mass density: 101.33 kPa, Liquid, Vibrating tube method; for surface tension liquid-gas: Pendant drop shape

CCCCCn1cc[n+](C)c1.O=S(=O)([N-]S(=O)(=O)C(F)(F)F)C(F)(F)F
Settings | mass density [kg/m3] | surface tension liquid-gas
293.15 K | 1408.1 | –
303.15 K | 1398.7 | –
312.7 K | – | 29.5 mN/m
313.15 K | 1389.4 | –
313.2 K | – | 30.5 mN/m
323.15 K | 1380.3 | –
333.15 K | 1371.2 | –
333.2 K | – | 28.3 mN/m
343.15 K | 1362.1 | –
353.15 K | 1353.1 | –
353.4 K | – | 27.3 mN/m
353.7 K | – | 27.2 mN/m
363.15 K | 1344 | –
373.15 K | 1335 | –
373.5 K | – | 26.3 mN/m
373.7 K | – | 26.6 mN/m
383.15 K | 1325.9 | –
393.15 K | 1316.8 | –
393.7 K | – | 24.7 mN/m and 25.6 mN/m
403.15 K | 1307.6 | –
413.15 K | 1298.4 | –
413.6 K | – | 24.6 mN/m
413.8 K | – | 23.5 mN/m
423.15 K | 1288.6 | –
433.15 K | 1279.7 | –
433.5 K | – | 22.6 mN/m
433.7 K | – | 23.7 mN/m
443.15 K | 1270.3 | –
453.15 K | 1260.8 | –
453.5 K | – | 21.7 mN/m
453.6 K | – | 22.8 mN/m
463.15 K | 1251.1 | –
473.15 K | 1241.3 | –
473.3 K | – | 21.1 mN/m
473.6 K | – | 21.7 mN/m
493 K | – | 21.6 mN/m
493.2 K | – | 20.8 mN/m
512.9 K | – | 20.1 mN/m

CCCCCCCCCCCCCCn1cc[n+](C)c1.O=S(=O)([N-]S(=O)(=O)C(F)(F)F)C(F)(F)F
Settings | mass density [kg/m3] | surface tension liquid-gas [mN/m]
312.8 K | – | 26.3
323.15 K | 1193.1 | –
323.3 K | – | 24.9
333.15 K | 1184.8 | –
333.2 K | – | 23.5
333.9 K | – | 24.1
343.15 K | 1176.6 | –
353.15 K | 1168.5 | –
353.3 K | – | 23.5
354 K | – | 23.7
363.15 K | 1160.5 | –
373.15 K | 1152.4 | –
373.5 K | – | 22.1
374 K | – | 22.6
383.15 K | 1144.4 | –
393.15 K | 1136.4 | –
393.6 K | – | 21.5
394.7 K | – | 21.3
403.15 K | 1128.4 | –
413.15 K | 1120.4 | –
413.5 K | – | 20.9
414.9 K | – | 19.7
423.15 K | 1112.4 | –
433.15 K | 1104.3 | –
433.6 K | – | 18.7
434.8 K | – | 19.6
443.15 K | 1096.2 | –
453.15 K | 1088 | –
453.6 K | – | 17.5
454.5 K | – | 17.9
463.15 K | 1079.7 | –
473.15 K | 1071.4 | –
473.5 K | – | 16.6
474.5 K | – | 17
493.4 K | – | 15.9
512.9 K | – | 15.5

CCCCCCCCCCn1cc[n+](C)c1.O=S(=O)([N-]S(=O)(=O)C(F)(F)F)C(F)(F)F
Settings | mass density [kg/m3] | surface tension liquid-gas
293.15 K | 1284.9 | –
303.15 K | 1276 | –
313.15 K | 1267.4 | –
313.2 K | – | 28.7 mN/m
313.3 K | – | 29.1 mN/m
314.1 K | – | 27.7 mN/m
323.15 K | 1258.8 | –
333 K | – | 26.7 mN/m
333.15 K | 1250.3 | –
333.3 K | – | 27 mN/m
333.6 K | – | 28.1 mN/m
343.15 K | 1241.8 | –
352.7 K | – | 27 mN/m
353.15 K | 1233.5 | –
353.2 K | – | 25.4 mN/m
353.3 K | – | 25.3 mN/m
363.15 K | 1225.1 | –
372.6 K | – | 26.3 mN/m
373.15 K | 1216.7 | –
373.3 K | – | 24.3 mN/m
373.4 K | – | 24.5 mN/m
383.15 K | 1208.4 | –
392.4 K | – | 24.9 mN/m and 24.6 mN/m
393.15 K | 1200 | –
393.3 K | – | 23.5 mN/m
403.15 K | 1191.7 | –
412.3 K | – | 23.5 mN/m
412.5 K | – | 23.6 mN/m
413.15 K | 1183.3 | –
413.5 K | – | 22.4 mN/m
423.15 K | 1174.8 | –
432.2 K | – | 22.9 mN/m
433 K | – | 22.2 mN/m
433.15 K | 1166.4 | –
433.3 K | – | 21.5 mN/m
443.15 K | 1157.8 | –
452.8 K | – | 22.2 mN/m
452.9 K | – | 21.2 mN/m
453.15 K | 1148.9 | –
453.2 K | – | 20.4 mN/m
463.15 K | 1140.2 | –
472.7 K | – | 21.1 mN/m
472.8 K | – | 19.1 mN/m
473.15 K | 1131.4 | –
473.3 K | – | 19.3 mN/m
492.5 K | – | 20.1 mN/m
493.1 K | – | 18.5 mN/m
513.8 K | – | 17.5 mN/m
533.2 K | – | 16.9 mN/m

CCCCCCCn1cc[n+](C)c1.O=S(=O)([N-]S(=O)(=O)C(F)(F)F)C(F)(F)F
Settings | mass density [kg/m3]
293.15 K | 1349.5
303.15 K | 1340.4
313.15 K | 1331.5
323.15 K | 1322.6
333.15 K | 1313.8
343.15 K | 1305
353.15 K | 1296.3
363.15 K | 1287.6
373.15 K | 1278.9
383.15 K | 1270.1
393.15 K | 1261.4
403.15 K | 1252.6
413.15 K | 1243.8
423.15 K | 1235
433.15 K | 1226.1
443.15 K | 1217
453.15 K | 1208
463.15 K | 1198.7
473.15 K | 1189.4

CCCCCC[n+]1ccn(C)c1.O=S(=O)([N-]S(=O)(=O)C(F)(F)F)C(F)(F)F
Settings | mass density [kg/m3] | surface tension liquid-gas [mN/m]
293.15 K | 1378.1 | –
303.15 K | 1368.9 | –
313 K | – | 29.4
313.15 K | 1359.8 | –
323.15 K | 1350.8 | –
333.15 K | 1341.8 | –
333.2 K | – | 28.1
343.15 K | 1332.9 | –
353.15 K | 1324 | –
353.4 K | – | 27.2
363.15 K | 1315.2 | –
373.15 K | 1306.3 | –
373.4 K | – | 26.5
383.15 K | 1297.4 | –
393.15 K | 1288.5 | –
393.5 K | – | 25.6
403.15 K | 1279.6 | –
413.15 K | 1270.6 | –
413.3 K | – | 24.8
423.15 K | 1261.6 | –
433.15 K | 1252.4 | –
433.6 K | – | 24.2
443.15 K | 1243.2 | –
453.15 K | 1233.9 | –
453.4 K | – | 23.6
463.15 K | 1224.5 | –
473.15 K | 1214.9 | –
473.4 K | – | 21.8
493.2 K | – | 20.7
512.7 K | – | 19.3
532.4 K | – | 18.5

CCCCCCCCC[n+]1ccn(C)c1.O=S(=O)([N-]S(=O)(=O)C(F)(F)F)C(F)(F)F
Settings | mass density [kg/m3]
293.15 K | 1303.1
303.15 K | 1294.2
313.15 K | 1285.5
323.15 K | 1276.8
333.15 K | 1268.3
343.15 K | 1259.7
353.15 K | 1251.3
363.15 K | 1242.8
373.15 K | 1234.3
383.15 K | 1225.8
393.15 K | 1217.4
403.15 K | 1208.8
413.15 K | 1200.3
423.15 K | 1191.8
433.15 K | 1183.2
443.15 K | 1174.5
453.15 K | 1165.7
463.15 K | 1156.8
473.15 K | 1147.8
